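Method: 48-hour compound exposure of cells in 96-well plates, five concentrations, linear interpolation of endpoints. At the GI50, growth is halved. TGI: total growth inhibition.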
Tests used:
Test in all cases: DTP human tumour cell line panel, 48 h
SF-539 CNS = system: SF-539 CNS
OVCAR-8 ovarian = system: OVCAR-8 ovarian
DU-145 prostate = system: DU-145 prostate
UACC-62 melanoma = system: UACC-62 melanoma
T-47D breast = system: T-47D breast
786-0 renal = system: 786-0 renal
OVCAR-3 ovarian = system: OVCAR-3 ovarian
MOLT-4 leukemia = system: MOLT-4 leukemia
SK-OV-3 ovarian = system: SK-OV-3 ovarian
SR leukemia = system: SR leukemia
M14 melanoma = system: M14 melanoma
RPMI-8226 leukemia = system: RPMI-8226 leukemia
SF-295 CNS = system: SF-295 CNS
ACHN renal = system: ACHN renal
SF-268 CNS = system: SF-268 CNS
MDA-MB-231 breast = system: MDA-MB-231 breast
SNB-75 CNS = system: SNB-75 CNS
HOP-62 NSCLC = system: HOP-62 NSCLC
EKVX NSCLC = system: EKVX NSCLC
RXF 393 renal = system: RXF 393 renal
A498 renal = system: A498 renal
CCRF-CEM leukemia = system: CCRF-CEM leukemia
SNB-19 CNS = system: SNB-19 CNS
BT-549 breast = system: BT-549 breast
SK-MEL-2 melanoma = system: SK-MEL-2 melanoma
MDA-MB-435 = system: MDA-MB-435
MCF7 breast = system: MCF7 breast
UACC-257 melanoma = system: UACC-257 melanoma
SN12C renal = system: SN12C renal

Question: How did the TGI (SF-539 CNS) turn out when `C#CCn1cnc2cnc(Nc3cccc(NC(=O)CCl)c3)nc21` was run?
Answer: The TGI was over 62.5 µM.

Question: What about the GI50 (OVCAR-8 ovarian) of the same compound?
Answer: Its GI50 is 26.3 µM.

Question: What about the TGI (OVCAR-8 ovarian) of the same compound?
Answer: The TGI was over 62.5 µM.

Question: What about the GI50 (DU-145 prostate) of the same compound?
Answer: The GI50 was 29.8 µM.

Question: What about the TGI (DU-145 prostate) of the same compound?
Answer: Its TGI is over 62.5 µM.

Question: And the GI50 (UACC-62 melanoma)?
Answer: Its GI50 is 22.6 µM.

Question: And the TGI (UACC-62 melanoma)?
Answer: Its TGI is over 62.5 µM.

Question: What about the GI50 (T-47D breast) of the same compound?
Answer: The GI50 was over 62.5 µM.

Question: And the TGI (T-47D breast)?
Answer: Its TGI is over 62.5 µM.

Question: And the GI50 (786-0 renal)?
Answer: Its GI50 is 23.3 µM.

Question: What about the TGI (786-0 renal) of the same compound?
Answer: Its TGI is over 62.5 µM.

Question: What about the GI50 (OVCAR-3 ovarian) of the same compound?
Answer: Its GI50 is 15.2 µM.

Question: What about the TGI (OVCAR-3 ovarian) of the same compound?
Answer: Its TGI is over 62.5 µM.

Question: What about the GI50 (MOLT-4 leukemia) of the same compound?
Answer: Its GI50 is 21.5 µM.

Question: What about the TGI (MOLT-4 leukemia) of the same compound?
Answer: Its TGI is over 62.5 µM.

Question: What about the GI50 (SK-OV-3 ovarian) of the same compound?
Answer: Its GI50 is 23.6 µM.

Question: What about the TGI (SK-OV-3 ovarian) of the same compound?
Answer: The TGI was over 62.5 µM.

Question: What about the GI50 (SR leukemia) of the same compound?
Answer: Its GI50 is 56.8 µM.

Question: What about the TGI (SR leukemia) of the same compound?
Answer: Its TGI is over 62.5 µM.

Question: What about the GI50 (M14 melanoma) of the same compound?
Answer: Its GI50 is 22.5 µM.

Question: What about the TGI (M14 melanoma) of the same compound?
Answer: Its TGI is over 62.5 µM.

Question: And the GI50 (RPMI-8226 leukemia)?
Answer: The GI50 was 19.2 µM.

Question: And the TGI (RPMI-8226 leukemia)?
Answer: The TGI was over 62.5 µM.

Question: What about the GI50 (SF-295 CNS) of the same compound?
Answer: The GI50 was 47.1 µM.

Question: And the TGI (SF-295 CNS)?
Answer: Its TGI is over 62.5 µM.

Question: What about the GI50 (ACHN renal) of the same compound?
Answer: Its GI50 is 10.9 µM.

Question: And the TGI (ACHN renal)?
Answer: The TGI was 23.3 µM.

Question: What about the GI50 (SF-268 CNS) of the same compound?
Answer: Its GI50 is 25.8 µM.

Question: And the TGI (SF-268 CNS)?
Answer: The TGI was over 62.5 µM.

Question: What about the GI50 (MDA-MB-231 breast) of the same compound?
Answer: The GI50 was 20.8 µM.

Question: And the TGI (MDA-MB-231 breast)?
Answer: The TGI was over 62.5 µM.

Question: And the GI50 (SNB-75 CNS)?
Answer: Its GI50 is 8.18 µM.

Question: What about the TGI (SNB-75 CNS) of the same compound?
Answer: The TGI was over 62.5 µM.

Question: And the GI50 (HOP-62 NSCLC)?
Answer: Its GI50 is 54.7 µM.

Question: And the TGI (HOP-62 NSCLC)?
Answer: The TGI was over 62.5 µM.

Question: What about the GI50 (EKVX NSCLC) of the same compound?
Answer: The GI50 was over 62.5 µM.

Question: What about the TGI (EKVX NSCLC) of the same compound?
Answer: Its TGI is over 62.5 µM.

Question: What about the GI50 (RXF 393 renal) of the same compound?
Answer: The GI50 was 10.1 µM.

Question: What about the TGI (RXF 393 renal) of the same compound?
Answer: Its TGI is 25.4 µM.

Question: And the GI50 (A498 renal)?
Answer: Its GI50 is 21 µM.

Question: What about the TGI (A498 renal) of the same compound?
Answer: Its TGI is over 62.5 µM.

Question: What about the GI50 (CCRF-CEM leukemia) of the same compound?
Answer: The GI50 was 15.3 µM.

Question: And the TGI (CCRF-CEM leukemia)?
Answer: The TGI was over 62.5 µM.

Question: And the GI50 (SNB-19 CNS)?
Answer: The GI50 was 36.5 µM.

Question: And the TGI (SNB-19 CNS)?
Answer: Its TGI is over 62.5 µM.

Question: What about the GI50 (BT-549 breast) of the same compound?
Answer: Its GI50 is 13.3 µM.

Question: What about the TGI (BT-549 breast) of the same compound?
Answer: The TGI was over 62.5 µM.

Question: What about the GI50 (SK-MEL-2 melanoma) of the same compound?
Answer: The GI50 was 43 µM.

Question: And the TGI (SK-MEL-2 melanoma)?
Answer: Its TGI is over 62.5 µM.

Question: And the GI50 (MDA-MB-435)?
Answer: The GI50 was 28.5 µM.

Question: What about the TGI (MDA-MB-435) of the same compound?
Answer: Its TGI is over 62.5 µM.

Question: What about the GI50 (MCF7 breast) of the same compound?
Answer: Its GI50 is 15.3 µM.

Question: And the TGI (MCF7 breast)?
Answer: The TGI was over 62.5 µM.

Question: What about the GI50 (UACC-257 melanoma) of the same compound?
Answer: Its GI50 is 51 µM.

Question: And the TGI (UACC-257 melanoma)?
Answer: Its TGI is over 62.5 µM.

Question: What about the GI50 (SN12C renal) of the same compound?
Answer: Its GI50 is 19.4 µM.

Question: What about the TGI (SN12C renal) of the same compound?
Answer: Its TGI is over 62.5 µM.

— PubChem BioAssay (NCI)
